The values that follow are results of earlier work, collected in patent publication US20110092597A1, “METHOD FOR TREATING HERPES VIRUS INFECTION” (priority 2009, published 2011).

The structures appear in SMILES notation.

Assay in data set [1]: not given
This is another data set of the same source.

For the molecule `O=C(O)Cc1ccccc1Nc1c(Cl)cccc1Cl` [Diclofenac, 2-(2,6-dichloro-anilino)-phenyl-acetic acid], the Solubility in water result is given as “relatively low”. With `Nc1nc2c(ncn2COCCO)c(=O)[nH]1` [acyclovir, acycloguanosine], the Solubility in water result is “poorly soluble”. In addition, in data set [1], the Bioavailability result is “low”.
